Target: T1, PI3Kγ (p101/p110γ protein) (Homo sapiens, UniProt P48736)
T1 construct: HA; made in house; host or cells: Spodoptera frugiperda (Sf9) cells, baculovirus co-infection
Assay: PI3Kγ In Vitro Kinase Assay
Type: biochemical
Conditions: purified recombinant p101/p110γ with G protein β1/γ2 subunits; 20 μM ATP, 25 μM PIP2; 20 minutes at room temperature
Description: Spodtera frugiperda cells, grown in ESF921 media, were coinfected with baculovirus expressing a glu-tagged p101 and baculovirus expressing an HA-tagged p110γ, at a 3:1 ratio of p101 baculovirus to p110γ baculovirus. Sf9 cells were grown to 1×10^7 total cells/mL in 10L bioreactors and harvested 48-72 hours post infection. Samples of infected cells were then tested for expression of p101/p110γ PI3 kinase by immunoprecipitation and Western Blot analysis methods (see below). […] NaCl was added to 150 mM, and sodium cholate was added to 1% and mixed for another 45 minutes. The lysates were clarified by centrifugation for 25 minutes at 14,000 rpm. The lysates were then loaded over anti-glu-linked Protein-G Sepaharose beads (Covance Research Products, Richmond, Calif.) using 20 mL resin/50 g cell paste. […] PI3Kγ was eluted with 6 column volumes of wash buffer that contain 100 μg/mL of a peptide that competes for binding of the glu tag. […] The fractions were stored at -80° C. until further use. Spodtera frugiperda cells were coinfected with baculovirus expressing a glu-tagged G protein β1 and baculovirus expressing a G protein […] at a 1:1 ratio of glu-tagged G protein β1 baculovirus to G protein β2 baculovirus. Sf9 cells are grown in 10 L bioreactors and harvested 48-72 hours post infection. Samples of infected cells were tested for G protein β1/β2 expression by Western Blot analysis, as described below. Cell lysates were homogenized and loaded onto a column of glu-tagged beads as in Biological Example 1 and competed off the column with a glu peptide as described in Biological Example 1. The inhibitory properties of the compounds in Table 1 were assayed in an in vitro PI3K assay. In a 96-well polypropylene plate, each well was spotted with 2 μL of […] the desired final concentration of compound in DMSO. Purified recombinant p101/p110γ protein (0.03 μg; 2.7 nM) and G protein β1/γ2 subunits (0.09 μg; 57.7 nM) for each reaction was combined in the assay buffer (30 mM HEPES, 100 mM NaCl, 1 mM EGTA, and 1 mM DTT). ATP and [γ-^32P-ATP] (0.09 μCi) were added to this mixture so that the final ATP concentration in the reaction was 20 μM. Lipid micelles were formed by sonicating phosphatidylinositol-4,5-diphosphate (PIP2), phosphatidylethanolamine (PE), and Na-cholate in the assay buffer for 10 minutes, adding MgCL2 and incubating on ice for 20 minutes, for final concentrations of 25 μM PIP2, 300 [M PE, 0.02% Na-cholate, and 10 mM MgCl2 in the reaction. The reactions were started by adding equal volumes lipid and enzyme mixture in a total volume of 50 μL, allowed to run for 20 minutes at room temperature, and stopped with 100 μL 75 mM H3PO4. The lipid product was transferred to a glass fiber filter plate and washed with 75 mM H3PO4 several times. The presence of radioactive lipid product (PIP3) was measured by adding Wallac Optiphase mix to each well and counting in a Wallac 1450 Trilux plate reader (PerkinElmer Life Sciences Inc., Boston, Mass. 02118).

T1 sequence (P48736 whole entry, species assumed): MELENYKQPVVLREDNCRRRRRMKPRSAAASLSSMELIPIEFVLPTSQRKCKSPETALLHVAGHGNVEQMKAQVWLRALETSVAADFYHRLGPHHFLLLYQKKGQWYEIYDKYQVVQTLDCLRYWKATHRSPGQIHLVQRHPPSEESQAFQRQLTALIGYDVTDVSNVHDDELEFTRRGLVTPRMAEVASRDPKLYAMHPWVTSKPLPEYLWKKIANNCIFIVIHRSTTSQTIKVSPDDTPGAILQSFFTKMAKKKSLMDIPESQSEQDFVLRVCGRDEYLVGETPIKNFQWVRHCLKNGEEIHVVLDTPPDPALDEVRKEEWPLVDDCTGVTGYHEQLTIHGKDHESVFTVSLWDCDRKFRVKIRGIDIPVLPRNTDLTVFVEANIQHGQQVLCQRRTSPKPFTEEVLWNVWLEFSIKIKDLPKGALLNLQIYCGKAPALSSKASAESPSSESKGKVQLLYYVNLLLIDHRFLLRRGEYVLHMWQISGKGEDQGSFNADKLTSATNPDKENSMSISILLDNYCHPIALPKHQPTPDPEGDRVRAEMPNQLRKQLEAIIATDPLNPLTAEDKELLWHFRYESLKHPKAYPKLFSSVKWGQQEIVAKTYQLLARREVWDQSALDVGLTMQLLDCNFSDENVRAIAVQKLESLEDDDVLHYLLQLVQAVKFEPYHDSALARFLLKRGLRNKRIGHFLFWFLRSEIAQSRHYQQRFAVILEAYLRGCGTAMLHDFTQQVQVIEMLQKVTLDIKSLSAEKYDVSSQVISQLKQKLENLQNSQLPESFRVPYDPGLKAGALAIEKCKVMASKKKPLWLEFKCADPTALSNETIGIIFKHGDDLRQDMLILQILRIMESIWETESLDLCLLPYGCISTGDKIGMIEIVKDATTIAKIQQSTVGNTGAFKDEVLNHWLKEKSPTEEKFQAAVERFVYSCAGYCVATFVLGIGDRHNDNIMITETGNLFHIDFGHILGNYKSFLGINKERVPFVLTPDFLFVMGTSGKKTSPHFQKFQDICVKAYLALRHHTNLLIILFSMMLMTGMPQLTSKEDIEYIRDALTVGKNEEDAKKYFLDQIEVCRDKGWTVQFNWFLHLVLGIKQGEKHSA
T1 sequence (Q8WYR1 whole entry partner, species assumed): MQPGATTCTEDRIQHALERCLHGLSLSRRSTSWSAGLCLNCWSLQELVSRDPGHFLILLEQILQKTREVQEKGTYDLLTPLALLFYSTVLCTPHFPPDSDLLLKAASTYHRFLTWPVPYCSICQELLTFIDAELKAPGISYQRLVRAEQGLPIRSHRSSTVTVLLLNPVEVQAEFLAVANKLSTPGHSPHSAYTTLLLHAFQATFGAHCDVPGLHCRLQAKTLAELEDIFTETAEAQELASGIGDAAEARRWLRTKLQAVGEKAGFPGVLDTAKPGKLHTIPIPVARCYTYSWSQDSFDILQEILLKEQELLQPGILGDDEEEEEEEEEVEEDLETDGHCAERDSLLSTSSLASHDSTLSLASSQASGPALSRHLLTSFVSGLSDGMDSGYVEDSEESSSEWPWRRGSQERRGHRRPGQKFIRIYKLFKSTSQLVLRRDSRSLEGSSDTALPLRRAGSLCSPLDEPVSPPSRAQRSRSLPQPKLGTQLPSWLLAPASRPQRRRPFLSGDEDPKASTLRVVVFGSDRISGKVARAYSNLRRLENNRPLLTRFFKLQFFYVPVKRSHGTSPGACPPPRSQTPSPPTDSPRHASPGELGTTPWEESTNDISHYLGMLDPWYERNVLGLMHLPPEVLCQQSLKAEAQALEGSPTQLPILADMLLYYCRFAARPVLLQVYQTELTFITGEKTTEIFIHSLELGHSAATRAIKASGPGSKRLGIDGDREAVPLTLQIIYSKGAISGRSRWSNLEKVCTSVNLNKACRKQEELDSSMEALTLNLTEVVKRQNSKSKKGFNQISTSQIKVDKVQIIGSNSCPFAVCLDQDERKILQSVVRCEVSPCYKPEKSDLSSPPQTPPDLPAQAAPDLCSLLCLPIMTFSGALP

Compound	IC50 [nM]
4-(3-Chloro-4-fluoro-benzyl)-8-fluoro-6-(4-oxo-2-thioxo-thiazolidin-5-ylidenemethyl)-4H-benzo[1,4]oxazin-3-one [Example 309]	2
4-Ethyl-6-(4-oxo-2-thioxo-thiazolidin-5-ylidenemethyl)-4H-benzo[1,4]oxazin-3-one [Example 139]	42
4-Methyl-6-(4-oxo-2-thioxo-oxazolidin-5-ylidenemethyl)-4a,8a-dihydro-4H-benzo[1,4]oxazin-3-one, Potassium Salt [Example 204]	16
5-{4-[3-(4-Methoxy-phenyl)-propyl]-3-oxo-3,4-dihydro-2H-benzo[1,4]oxazin-6-ylmethylene}-thiazolidine-2,4-dione [Example 125]	18
8-Fluoro-4-(3-morpholin-4-yl-propyl)-6-(4-oxo-2-thioxo-thiazolidin-5-ylidenemethyl)-4H-benzo[1,4]oxazin-3-one [Example 242]	55
O=C1COc2ccc(C=C3SC(=S)NC3=O)cc2N1 [Example 1, 6-(4-Oxo-2-thioxo-thiazolidin-5-ylidenemethyl)-4H-1,4-benzoxazin-3-one]	78
O=C(O)CN1C(=O)COc2ccc(C=C3SC(=S)NC3=O)cc21 [Example 3, [3-Oxo-6-(4-oxo-2-thioxo-thiazolidin-5-ylidenemethyl)-2,3-dihydro-1,4-benzoxazin-4-yl]-acetic acid]	635
O=C1NC(=S)SC1=Cc1ccc2c(c1)N(Cc1ccccc1)C(=O)CO2 [Example 4, 4-Benzyl-6-(4-oxo-2-thioxo-thiazolidin-5-ylidenemethyl)-4H-1,4-benzoxazin-3-one]	23
COc1cc(C=C2SC(=S)NC2=O)cc2c1OCC(=O)N2 [Example 6, 8-Methoxy-6-(4-oxo-2-thioxo-thiazolidin-5-ylidenemethyl)-4H-1,4-benzoxazin-3-one]	560
COC(=O)c1cccc(CN2C(=O)COc3ccc(C=C4SC(=S)NC4=O)cc32)c1 [Example 8, 3-[3-Oxo-6-(4-oxo-2-thioxo-thiazolidin-5-ylidenemethyl)-2,3-dihydro-1,4-benzoxazin-4-ylmethyl]-benzoic acid methyl ester]	81
O=C1NC(=S)SC1=Cc1ccc2c(c1)N(Cc1cccc(OCc3ccccc3)c1)C(=O)CO2 [Example 15, 4-(3-Benzyloxy-benzyl)-6-(4-oxo-2-thioxo-thiazolidin-5-ylidenemethyl)-4H-1,4-benzoxazin-3-one]	13
Cc1cc(C=C2SC(=S)NC2=O)c(C)c2c1OCC(=O)N2 [Example 16, 5,8-Dimethyl-6-(4-oxo-2-thioxo-thiazolidin-5-ylidenemethyl)-4H-benzo[1,4]oxazin-3-one]	328
C[C@@H]1Oc2ccc(C=C3SC(=S)NC3=O)cc2N(Cc2ccccc2)C1=O [Example 18, (S)-4-Benzyl-2-methyl-6-(4-oxo-2-thioxo-thiazolidin-5-ylidenemethyl)-4H-1,4-benzoxazin-3-one]	319
O=C1NC(=S)SC1=Cc1ccc2c(c1)N(Cc1ccc(CN3CCCCC3)cc1)C(=O)CO2 [Example 19, 4-(4-Piperidin-1-ylmethyl-benzyl)-6-(4-oxo-2-thioxo-thiazolidin-5-ylidenemethyl)-4H-1,4-benzoxazin-3-one]	8
CCN(CC)Cc1ccc(CN2C(=O)COc3ccc(C=C4SC(=S)NC4=O)cc32)cc1 [Example 21, 4-(4-Diethylaminomethyl-benzyl)-6-(4-oxo-2-thioxo-thiazolidin-5-ylidenemethyl)-4H-1,4-benzoxazin-3-one]	14
CC(=O)OCc1ccccc1CN1C(=O)COc2ccc(C=C3SC(=S)NC3=O)cc21 [Example 22, Acetic acid 2-[3-oxo-6-(4-oxo-2-thioxo-thiazolidin-5-ylidenemethyl)-2,3-dihydro-1,4-benzoxazin-4-ylmethyl]-benzyl ester]	17
O=C1NC(=S)SC1=Cc1ccc2c(c1)N(Cc1ccccc1CO)C(=O)CO2 [Example 24, 4-(2-Hydroxymethyl-benzyl)-6-(4-oxo-2-thioxo-thiazolidin-5-ylidenemethyl)-4H-1,4-benzoxazin-3-one]	3

Results, then the compound that gave them:

IC50 [nM]	Compound
45	CN1C(=O)COc2ccc(C=C3SC(=S)NC3=O)cc21 [Example 2, 4-Methyl-6-(4-oxo-2-thioxo-thiazolidin-5-ylidenemethyl)-4H-1,4-benzoxazin-3-one]
25	O=C1NC(=S)SC1=Cc1ccc2c(c1)N(CCc1ccccc1)C(=O)CO2 [Example 5, 6-(4-Oxo-2-thioxo-thiazolidin-5-ylidenemethyl)-4-phenethyl-4H-1,4-benzoxazin-3-one]
84	COC(=O)CN1C(=O)COc2ccc(C=C3SC(=S)NC3=O)cc21 [Example 7, [3-Oxo-6-(4-oxo-2-thioxo-thiazolidin-5-ylidenemethyl)-2,3-dihydro-1,4-benzoxazin-4-yl]-acetic acid methyl ester]
61	O=C1NC(=S)SC1=Cc1ccc2c(c1)N(Cc1ccc(-c3ccccc3)cc1)C(=O)CO2 [Example 9, 4-Biphenyl-4-ylmethyl-6-(4-oxo-2-thioxo-thiazolidin-5-ylidenemethyl)-4H-1,4-benzoxazin-3-one]
3630	O=C(O)CN1C(=O)C(=Cc2ccc3c(c2)NC(=O)CO3)SC1=S [Example 10, [4-Oxo-5-(3-oxo-3,4-dihydro-2H-1,4-benzoxazin-6-ylmethylene)-2-thioxo-thiazolidin-3-yl]-acetic acid; compound with trifluoro-acetic acid]
61	O=C1NC(=S)SC1=Cc1ccc2c(c1)N(Cc1ccc3ccccc3c1)C(=O)CO2 [Example 11, 4-Naphthalen-2-ylmethyl-6-(4-oxo-2-thioxo-thiazolidin-5-ylidenemethyl)-4H-1,4-benzoxazin-3-one]
27	O=C1NC(=S)SC1=Cc1ccc2c(c1)N(Cc1cccnc1)C(=O)CO2 [Example 12, 6-(4-Oxo-2-thioxo-thiazolidin-5-ylidenemethyl)-4-pyridin-3-ylmethyl-4H-1,4-benzoxazin-3-one]
745	C[C@@H]1Oc2ccc(C=C3SC(=S)NC3=O)cc2NC1=O [Example 13, (S)-2-Methyl-6-(4-oxo-2-thioxo-thiazolidin-5-ylidenemethyl)-4H-1,4-benzoxazin-3-one]
5	Cc1cc(C)cc(CN2C(=O)COc3ccc(C=C4SC(=S)NC4=O)cc32)c1 [Example 14, 4-(3,5-Dimethyl-benzyl)-6-(4-oxo-2-thioxo-thiazolidin-5-ylidenemethyl)-4H-1,4-benzoxazin-3-one]
9	O=C1NC(=S)SC1=Cc1ccc2c(c1)N(Cc1cccc(C(=O)O)c1)C(=O)CO2 [Example 17, 3-[3-Oxo-6-(4-oxo-2-thioxo-thiazolidin-5-ylidenemethyl)-2,3-dihydro-1,4-benzoxazin-4-ylmethyl]-benzoic acid]
3	O=C1NC(=S)SC1=Cc1ccc2c(c1)N(Cc1ccc(CN3CCOCC3)cc1)C(=O)CO2 [Example 20, 4-(4-Morpholin-4-ylmethyl-benzyl)-6-(4-oxo-2-thioxo-thiazolidin-5-ylidenemethyl)-4H-1,4-benzoxazin-3-one]
5	O=C1NC(=S)SC1=Cc1ccc2c(c1)N(Cc1ccc(OCc3ccccc3)cc1)C(=O)CO2 [Example 23, 4-(4-Benzyloxy-benzyl)-6-(4-oxo-2-thioxo-thiazolidin-5-ylidenemethyl)-4H-1,4-benzoxazin-3-one]
8	O=C1NC(=S)SC1=Cc1ccc2c(c1)N(Cc1ccc(Oc3cccc4ccccc34)cc1)C(=O)CO2 [Example 25, 4-[4-(Naphthalen-1-yloxy)-benzyl]-6-(4-oxo-2-thioxo-thiazolidin-5-ylidenemethyl)-4H-1,4-benzoxazin-3-one]
9	COc1cc(CN2C(=O)COc3ccc(C=C4SC(=S)NC4=O)cc32)cc(OC)c1 [Example 26, 4-(3,5-Dimethoxy-benzyl)-6-(4-oxo-2-thioxo-thiazolidin-5-ylidenemethyl)-4H-1,4-benzoxazin-3-one]

From patent US7205295B2, “Benzoxazin-3-ones and derivatives thereof as therapeutic agents” (Warner-Lambert Company LLC, priority 2002, dated 2007)
